The target in experiment [1] is T1, DNA-dependent protein kinase (DNA-PK) (Homo sapiens, UniProt P78527).
T1 construct: endogenous in cells; host or cells: Jurkat cells (ATCC TIB-152, clone E6-1), lysate
Kind of experiment: kinobeads assay, DNA-PK (dot blot detection). The format is binding. On the procedure: (§1) The compounds of the present invention as described were tested in the mTOR kinobeads assay as described below. Briefly, test compounds (at various concentrations) and the affinity matrix (1:1 mixture of beads with immobilized phenylthiazole ligand 1 and beads with immobilized phenylmorpholin-chromen ligand; WO 2009/098021) were added to cell lysate aliquots and allowed to bind to the proteins in the lysate sample. After the incubation time the beads with captured proteins were separated from the lysate. Bound proteins were then eluted and the presence of mTOR, PI3K delta (PI3 Kd) and DNA-dependent protein kinase (DNA-PK) was detected and quantified using a specific antibody in a dot blot procedure and the Odyssey infrared detection system. Dose response curves for individual kinases were generated and IC50 values calculated. Kinobeads assays for PI3 kinases (WO-A 2008/015013) and for kinase selectivity profiling (WO 2009/098021) have been previously described.
(§2) The affinity matrix (beads with immobilized phenylmorpholin-chromen ligand) was washed two times with 15 ml of 1×DP buffer containing 0.2% NP40 (IGEPAL® CA-630, Sigma, #13021) and then resupended in 5.5 ml of 1×DP buffer containing 0.2% NP40 (10% beads slurry).
(§3) 5×DP buffer: 250 mM Tris-HCl pH 7.4, 25% Glycerol, 7.5 mM MgCl2, 750 mM NaCl, 5 mM Na3VO4, filter the 5×-lysis buffer through 0.22 μm filter and store in aliquots at −80° C. The 5×DP buffer is diluted to 1×DP buffer containing 1 mM DTT and 25 mM NaF.
(§4) Stock solutions of test compounds were prepared in DMSO. In a 96 well plate 30 μl solution of diluted test compounds at 5 mM in DMSO were prepared. Starting with this solution a 1:3 dilution series (9 steps) was prepared. For control experiments (no test compound) a buffer containing 2% DMSO was used. Compound CZC00018052 served as a positive control (PI-103; Calbiochem catalogue number 528100).
(§5) Jurkat cells (ATCC catalogue number TIB-152 Jurkat, clone E6-1) were grown in 1 litre Spinner flasks (Integra Biosciences, #182101) in suspension in RPMI 1640 medium (Invitrogen, #21875-034) supplemented with 10% Fetal Bovine Serum (Invitrogen) at a density between 0.15×10^6 and 1.2×10^6 cells/ml. Cells were harvested by centrifugation, washed once with 1×PBS buffer (Invitrogen, #14190-094) and cell pellets were frozen in liquid nitrogen and subsequently stored at −80° C.
(§6) Jurkat cells were homogenized in a Potter S homogenizer in lysis buffer: 50 mM Tris-HCl, 0.8% NP40, 5% glycerol, 150 mM NaCl, 1.5 mM MgCl2, 25 mM NaF, 1 mM sodium vanadate, 1 mM DTT, pH 7.5. One complete EDTA-free tablet (protease inhibitor cocktail, Roche Diagnostics, 1873580) per 25 ml buffer was added. The material was dounced 10 times using a mechanized POTTER S, transferred to 50 ml falcon tubes, incubated for 30 minutes on ice and spun down for 10 min at 20,000 g at 4° C. (10,000 rpm in Sorvall SLA600, precooled). The supernatant was transferred to an ultracentrifuge (UZ)-polycarbonate tube (Beckmann, 355654) and spun for 1 hour at 100.000 g at 4° C. (33.500 rpm in Ti50.2, precooled). The supernatant was transferred again to a fresh 50 ml falcon tube, the protein concentration was determined by a Bradford assay (BioRad) and samples containing 50 mg of protein per aliquot were prepared. The samples were immediately used for experiments or frozen in liquid nitrogen and stored frozen at −80° C.
(§7) Jurkat cell lysate (approximately 50 mg protein per plate) was thawed in a water bath at room temperature and then kept on ice. To the thawed cell lysate 1×DP 0.8% NP40 buffer containing protease inhibitors (1 tablet for 25 ml buffer; EDTA-free protease inhibitor cocktail; Roche Diagnostics 1873580) was added in order to reach a final protein concentration of 5 mg/ml total protein. The diluted cell lysate was stored on ice. […]

In experiment [2] the test system is S6RP serine-240/244 phosphorylation in HEK293T/17 cells. Kind of experiment: In vitro phospho-S6 cellular assay (pS6RP S240/244). The format is cell-based. Particulars: Homo sapiens, Table 6, 2 hours, S6RP Ser240/244, read-out: pS6 (phospho-S6 cell assay data, activity level). The text has this:
In Vitro Phospho-S6 and Phospho-Akt Cellular Assay
Activation of mTOR signaling results in phosphorylation of several downstream targets. In cells, mTOR exists in two different protein complexes. The mTOR Complex-1 (mTORC1) phosphorylates and activates S6 Kinase 1 (S6K1) and S6 Kinase 2 (S6K2) (also known as p70S6K) which then phosphorylate S6 Ribosomal Protein (S6RP) (also known as RPS6). S6RP is phosphorylated on serine 235, serine 236, serine 240 and serine 244 by both pS6K1 and pS6K2. The mTOR Complex-2 (mTORC2) phosphorylates AKT on serine 473 which activates the AKT signaling pathway.
The assay measures a test compound's inhibition of S6RP serine-240/244 phosphorylation and inhibition of Akt serine-473 phosphorylation in human embryonic kidney derived HEK293T/17 cells (ATCC CRL-11268).
The HEK293T/17 cell line is maintained in DMEM media (Invitrogen catalogue number 41965-039) supplemented with 10% FCS at 37° C. in a 5% CO2 humidified incubator.
Cells are seeded in 96-well plates at 40,000 cells/well (pS6RP S240/244 assay) or 80,000 cells/well (pAkt 5473 assay) in 90 μl growth media (DMEM, 2% FCS). Plates are incubated for 1 hour in a humidified incubator to allow the cells to adhere. Cells are treated with 8 concentrations of test compounds or DMSO alone for controls (final DMSO concentration 0.1%) and incubated at 37° C. for 2 hours. Then 20 μl of 5× concentrated lysis buffer (750 mM NaCl, 100 mM Tris pH7.4, 5 mM EDTA, 5 mM EGTA, 5% Triton X-100) is added, plates are sealed and incubated for 15 minutes at 4° C. with gentle shaking. After cell lysis, 25 μl cell lysate is transferred to a MesoScale plate coated with an antibody to pS6RP Ser240/244 (MesoScale Discovery K150DGD-3) or an antibody to pAkt Ser 473 (MesoScale Discovery K151DGD-3). Plates have been blocked before by incubation with 150 μl MesoScale Discovery Blocking Solution-A for 1 hour at room temperature followed by washing with 150 μl 1× Tris wash buffer per well. After the transfer of the cell lysate to the MSD plate, the pS6RP (or pAkt) protein is captured on the coated antibody by incubation at room temperature for 1 hour with gentle shaking. After the capture step the plate is washed three times with 150 μl of 1× Tris wash buffer per well. Then 25 μl detection antibody conjugated with a Sulfo-Tag is added and incubated for 1 hour at room temperature with gentle shaking. Subsequently the antibody solution is removed and the plate is washed 3 times with 150 μl 1× Tris wash buffer per well and 150 μl Read buffer is added. The plates are analysed on a MSD 2400 Plate Reader (MesoScale Discovery). Data analysis is performed using nonlinear regression for a sigmoidal dose-response with a variable slope.

Another experiment has as its target T2, PI3Kβ (Homo sapiens, UniProt P42338).
T2 construct: endogenous in cells; host or cells: Jurkat cells (ATCC TIB-152) lysate, the only lysate described
Kind of experiment: kinobeads assay, PI3K beta (dot blot detection). The format is binding. Particulars: Table 4, read-out: Inhibition values (IC50) PI3Kb.

The target in another experiment is T3, PI3K delta (PI3Kd) (Homo sapiens, UniProt O00329).
T3 construct: endogenous in cells; host or cells: Jurkat cells (ATCC TIB-152, clone E6-1), lysate
Kind of experiment: kinobeads assay, PI3K delta (dot blot detection). The format is binding. How it is done: as §1, §2, §3, §4, §5, §6, §7

A further experiment concerns the target T4, PI3Kα (Homo sapiens, UniProt P42336).
T4 construct: endogenous in cells; host or cells: Jurkat cells (ATCC TIB-152) lysate, the only lysate described
Kind of experiment: kinobeads assay, PI3K alpha (dot blot detection). As to conditions: Table 4, read-out: Inhibition values (IC50) PI3Ka. Type of experiment: binding.

The target in another experiment is T5, mTOR (Homo sapiens, UniProt P42345).
T5 construct: endogenous in cells; host or cells: Jurkat cells (ATCC TIB-152, clone E6-1), lysate
Kind of experiment: mTOR kinobeads assay (dot blot detection). Type of experiment: binding. How it is done:
as §1, §2, §3, §4, §5, §6, §7

The target in the next experiment is T6, PI3Kγ (Homo sapiens, UniProt P48736).
T6 construct: endogenous in cells; host or cells: Jurkat cells (ATCC TIB-152) lysate, the only lysate described
Kind of experiment: kinobeads assay, PI3K gamma (dot blot detection). Type of experiment: binding. As to conditions: Table 4, read-out: Inhibition values (IC50) PI3Kg.

Where [3] appears, read: Table 2, Jurkat cell lysate, read-out: Inhibition values (IC50) DNAPK.
Where [4] appears, read: Table 4, read-out: Inhibition values (IC50) DNAPK.
Where [5] appears, read: Table 2, Jurkat cell lysate, read-out: Inhibition values (IC50) PI3Kd.
Setting [6] is: Table 4, read-out: Inhibition values (IC50) PI3Kd.
Where [7] appears, read: Table 2, Jurkat cell lysate, read-out: Inhibition values (IC50) mTor.
Setting [8] is: Table 4, read-out: Inhibition values (IC50) mTOR.

Molecules are shown by their SMILES. Where two headings read alike, the source gives them in different places.

T2 sequence (P42338 whole entry): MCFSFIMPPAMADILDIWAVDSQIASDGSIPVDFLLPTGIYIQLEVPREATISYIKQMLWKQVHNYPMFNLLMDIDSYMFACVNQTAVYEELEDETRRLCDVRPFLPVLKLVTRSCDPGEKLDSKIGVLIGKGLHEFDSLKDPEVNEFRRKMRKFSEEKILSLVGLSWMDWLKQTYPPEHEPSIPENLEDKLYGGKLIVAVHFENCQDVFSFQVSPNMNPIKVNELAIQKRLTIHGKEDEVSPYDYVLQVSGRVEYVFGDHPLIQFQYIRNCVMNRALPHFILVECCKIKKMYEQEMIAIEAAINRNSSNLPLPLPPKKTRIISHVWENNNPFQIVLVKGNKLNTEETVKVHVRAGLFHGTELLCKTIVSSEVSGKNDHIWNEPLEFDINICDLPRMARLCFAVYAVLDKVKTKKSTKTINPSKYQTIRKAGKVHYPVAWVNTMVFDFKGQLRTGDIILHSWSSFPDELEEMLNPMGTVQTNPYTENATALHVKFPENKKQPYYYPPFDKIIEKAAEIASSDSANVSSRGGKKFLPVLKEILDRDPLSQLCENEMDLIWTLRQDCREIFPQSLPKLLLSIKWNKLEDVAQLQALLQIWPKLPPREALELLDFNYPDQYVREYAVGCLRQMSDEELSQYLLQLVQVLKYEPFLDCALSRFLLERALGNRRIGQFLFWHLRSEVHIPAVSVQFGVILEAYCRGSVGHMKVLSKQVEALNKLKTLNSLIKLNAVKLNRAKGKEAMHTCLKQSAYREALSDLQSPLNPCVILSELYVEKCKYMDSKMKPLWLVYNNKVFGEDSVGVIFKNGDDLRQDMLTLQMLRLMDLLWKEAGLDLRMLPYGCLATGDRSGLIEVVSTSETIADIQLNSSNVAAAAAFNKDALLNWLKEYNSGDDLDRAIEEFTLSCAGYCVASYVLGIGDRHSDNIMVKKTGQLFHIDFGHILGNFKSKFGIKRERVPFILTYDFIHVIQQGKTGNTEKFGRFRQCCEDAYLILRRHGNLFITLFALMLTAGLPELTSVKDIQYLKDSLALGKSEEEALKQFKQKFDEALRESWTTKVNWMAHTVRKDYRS
T2 sequence (P27986 whole entry partner): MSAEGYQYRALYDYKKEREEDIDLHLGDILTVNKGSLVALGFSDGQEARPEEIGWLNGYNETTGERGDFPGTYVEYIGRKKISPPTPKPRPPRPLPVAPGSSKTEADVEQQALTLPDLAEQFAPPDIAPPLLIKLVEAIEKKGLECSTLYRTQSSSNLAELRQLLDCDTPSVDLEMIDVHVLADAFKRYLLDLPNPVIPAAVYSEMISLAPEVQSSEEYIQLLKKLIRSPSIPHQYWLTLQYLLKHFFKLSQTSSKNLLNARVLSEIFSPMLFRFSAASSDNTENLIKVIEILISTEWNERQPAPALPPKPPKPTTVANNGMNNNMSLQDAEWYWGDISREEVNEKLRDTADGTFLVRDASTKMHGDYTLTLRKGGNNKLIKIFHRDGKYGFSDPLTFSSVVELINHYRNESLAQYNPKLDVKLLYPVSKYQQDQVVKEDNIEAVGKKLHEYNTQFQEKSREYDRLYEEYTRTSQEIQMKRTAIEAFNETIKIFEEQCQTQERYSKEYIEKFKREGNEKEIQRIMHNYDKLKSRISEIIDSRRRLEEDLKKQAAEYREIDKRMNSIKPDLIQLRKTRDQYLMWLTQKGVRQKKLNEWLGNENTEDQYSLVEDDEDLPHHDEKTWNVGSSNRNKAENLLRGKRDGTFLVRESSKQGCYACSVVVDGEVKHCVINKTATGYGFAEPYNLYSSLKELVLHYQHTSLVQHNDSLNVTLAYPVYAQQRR
T4 sequence (P42336 whole entry): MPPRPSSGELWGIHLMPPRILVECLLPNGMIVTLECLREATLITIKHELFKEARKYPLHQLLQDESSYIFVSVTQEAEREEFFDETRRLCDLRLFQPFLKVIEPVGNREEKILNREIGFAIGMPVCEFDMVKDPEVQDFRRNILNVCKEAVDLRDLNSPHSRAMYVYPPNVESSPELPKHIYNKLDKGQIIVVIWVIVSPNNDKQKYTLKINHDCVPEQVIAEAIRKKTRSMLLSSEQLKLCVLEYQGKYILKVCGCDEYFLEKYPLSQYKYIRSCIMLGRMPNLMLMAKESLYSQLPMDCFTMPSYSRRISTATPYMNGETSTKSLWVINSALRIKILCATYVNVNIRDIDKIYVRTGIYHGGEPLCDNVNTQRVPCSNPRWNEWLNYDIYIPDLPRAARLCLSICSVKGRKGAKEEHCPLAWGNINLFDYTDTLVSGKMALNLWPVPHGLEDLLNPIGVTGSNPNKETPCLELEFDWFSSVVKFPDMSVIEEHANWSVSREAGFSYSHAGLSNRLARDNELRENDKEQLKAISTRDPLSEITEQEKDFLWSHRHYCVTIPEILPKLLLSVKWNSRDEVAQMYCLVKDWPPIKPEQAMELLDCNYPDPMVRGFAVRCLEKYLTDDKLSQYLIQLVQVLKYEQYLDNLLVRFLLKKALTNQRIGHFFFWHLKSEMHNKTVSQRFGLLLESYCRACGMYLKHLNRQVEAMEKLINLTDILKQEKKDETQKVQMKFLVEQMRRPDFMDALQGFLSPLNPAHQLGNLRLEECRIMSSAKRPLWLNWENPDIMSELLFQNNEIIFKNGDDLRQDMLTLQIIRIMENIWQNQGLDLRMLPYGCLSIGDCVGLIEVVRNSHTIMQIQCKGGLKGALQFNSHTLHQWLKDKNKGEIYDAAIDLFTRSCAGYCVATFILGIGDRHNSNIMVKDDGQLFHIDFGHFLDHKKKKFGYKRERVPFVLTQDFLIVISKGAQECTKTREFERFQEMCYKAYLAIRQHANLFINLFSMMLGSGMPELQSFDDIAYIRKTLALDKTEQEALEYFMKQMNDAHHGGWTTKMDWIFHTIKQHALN
T4 sequence (P27986 whole entry partner): as the sequence (P27986 whole entry partner) above
T6 sequence (P48736 whole entry): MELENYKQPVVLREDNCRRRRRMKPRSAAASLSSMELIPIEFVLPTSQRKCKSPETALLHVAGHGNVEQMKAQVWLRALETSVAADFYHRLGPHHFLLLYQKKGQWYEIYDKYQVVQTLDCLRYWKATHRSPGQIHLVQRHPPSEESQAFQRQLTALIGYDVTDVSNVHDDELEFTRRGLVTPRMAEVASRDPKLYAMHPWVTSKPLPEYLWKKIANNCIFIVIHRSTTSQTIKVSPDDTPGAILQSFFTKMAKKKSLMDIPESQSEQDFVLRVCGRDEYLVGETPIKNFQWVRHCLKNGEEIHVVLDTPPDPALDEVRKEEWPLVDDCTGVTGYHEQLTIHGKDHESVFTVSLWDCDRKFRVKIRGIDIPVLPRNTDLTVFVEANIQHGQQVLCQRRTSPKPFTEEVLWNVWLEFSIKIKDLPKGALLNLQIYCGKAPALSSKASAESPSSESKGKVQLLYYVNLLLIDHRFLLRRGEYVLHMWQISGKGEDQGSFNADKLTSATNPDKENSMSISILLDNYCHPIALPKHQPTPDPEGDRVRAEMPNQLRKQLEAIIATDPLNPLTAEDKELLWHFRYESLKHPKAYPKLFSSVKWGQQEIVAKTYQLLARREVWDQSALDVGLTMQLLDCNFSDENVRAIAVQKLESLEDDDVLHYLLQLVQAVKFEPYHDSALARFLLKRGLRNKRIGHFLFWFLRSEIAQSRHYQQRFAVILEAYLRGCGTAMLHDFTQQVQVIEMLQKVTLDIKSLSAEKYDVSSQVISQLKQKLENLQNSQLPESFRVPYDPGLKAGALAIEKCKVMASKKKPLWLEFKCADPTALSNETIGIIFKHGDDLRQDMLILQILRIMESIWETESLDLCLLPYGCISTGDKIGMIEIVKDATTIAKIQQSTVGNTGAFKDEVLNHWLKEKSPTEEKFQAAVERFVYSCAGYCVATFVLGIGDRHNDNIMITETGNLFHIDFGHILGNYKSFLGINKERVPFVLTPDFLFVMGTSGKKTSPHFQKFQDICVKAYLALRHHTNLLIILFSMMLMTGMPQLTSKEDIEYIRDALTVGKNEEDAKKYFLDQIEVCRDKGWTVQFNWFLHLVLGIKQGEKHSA
T3 sequence (O00329 whole entry): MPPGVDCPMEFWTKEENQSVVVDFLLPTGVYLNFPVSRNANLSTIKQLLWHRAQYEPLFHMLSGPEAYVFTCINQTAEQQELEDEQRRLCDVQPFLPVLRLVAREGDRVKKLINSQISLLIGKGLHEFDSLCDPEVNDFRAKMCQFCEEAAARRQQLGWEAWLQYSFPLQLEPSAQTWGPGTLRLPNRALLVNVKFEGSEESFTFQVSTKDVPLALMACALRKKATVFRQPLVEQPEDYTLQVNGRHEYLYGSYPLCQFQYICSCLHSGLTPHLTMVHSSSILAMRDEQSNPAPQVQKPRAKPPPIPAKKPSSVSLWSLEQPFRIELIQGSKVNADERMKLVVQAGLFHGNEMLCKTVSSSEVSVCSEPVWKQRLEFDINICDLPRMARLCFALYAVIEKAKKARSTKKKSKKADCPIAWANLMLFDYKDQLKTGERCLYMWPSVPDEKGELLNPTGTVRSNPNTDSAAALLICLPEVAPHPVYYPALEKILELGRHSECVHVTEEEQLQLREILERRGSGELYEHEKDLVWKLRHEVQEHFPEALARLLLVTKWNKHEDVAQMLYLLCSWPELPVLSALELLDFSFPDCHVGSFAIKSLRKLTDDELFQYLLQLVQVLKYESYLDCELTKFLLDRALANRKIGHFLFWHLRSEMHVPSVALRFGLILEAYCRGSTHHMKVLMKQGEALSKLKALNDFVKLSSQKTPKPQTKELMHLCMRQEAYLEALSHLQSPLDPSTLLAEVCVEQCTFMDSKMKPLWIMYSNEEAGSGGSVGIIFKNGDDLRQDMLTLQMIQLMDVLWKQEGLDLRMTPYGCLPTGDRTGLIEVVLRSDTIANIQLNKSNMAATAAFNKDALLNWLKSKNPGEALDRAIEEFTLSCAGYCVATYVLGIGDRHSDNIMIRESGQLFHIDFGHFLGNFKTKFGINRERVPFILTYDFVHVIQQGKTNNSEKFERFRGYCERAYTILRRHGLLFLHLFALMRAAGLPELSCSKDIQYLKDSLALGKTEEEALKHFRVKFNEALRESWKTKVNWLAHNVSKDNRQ
T3 sequence (P27986 whole entry partner): as the sequence (P27986 whole entry partner) above

Consider `CNC(=O)Nc1ccc(-c2ccnc(N3CCOCC3)n2)cc1` [Example 30, 1-methyl-3-(4-(2-morpholinopyrimidin-4-yl)phenyl)urea], for which the IC50 (in experiment [1] (setting [3]); in experiment [1] (setting [4]); in experiment [2]; at PI3Kβ; at PI3K delta (PI3Kd) (setting [5]); at PI3K delta (PI3Kd) (setting [6])) was 1 to 10 µM in each case. Besides, the IC50 on PI3Kα is 1 to 10 µM; at mTOR (setting [7]) it was 1 to 10 µM; on mTOR (setting [8]), 1 to 10 µM; at PI3Kγ it was no less than 10 µM.
For `C[C@H]1COCCN1c1cc(-c2cc(F)ccc2S(C)(=O)=O)nc(-c2ccc(NC(=O)NC3CC3)cc2F)n1` [Example 66, (S)-1-cyclopropyl-3-(3-fluoro-4-(4-(5-fluoro-2-(methylsulfonyl)phenyl)-6-(3-methylmorpholino)pyrimidin-2-yl)phenyl)urea], the IC50 in experiment [1] (setting [3]) was no less than 10 µM; in experiment [1] (setting [4]), no less than 10 µM; in experiment [2] it was 0.1 to 1 µM; at PI3Kβ, no less than 10 µM; at PI3K delta (PI3Kd) (setting [5]), no less than 10 µM; on PI3K delta (PI3Kd) (setting [6]), no less than 10 µM. In addition, the IC50 at PI3Kα is no less than 10 µM; on mTOR (setting [7]), 1 to 10 µM; on mTOR (setting [8]), 1 to 10 µM; at PI3Kγ it was no less than 10 µM.
`C[C@H]1COCCN1c1nc(-c2ccc(NC(=O)NC3CC3)cc2)cc(-c2ccccc2S(=O)(=O)N2CCCC2)n1` [Example 88, (S)-1-cyclopropyl-3-(4-(2-(3-methylmorpholino)-6-(2-(pyrrolidin-1-ylsulfonyl)phenyl)pyrimidin-4-yl)phenyl)urea]: the IC50 in experiment [1] (setting [4]) is no less than 10 µM; in experiment [2] it was less than 0.1 µM; on PI3Kβ, no less than 10 µM; on PI3K delta (PI3Kd) (setting [6]) it was no less than 10 µM; at PI3Kα, no less than 10 µM; at mTOR (setting [8]) it was 1 to 10 µM. Besides, on PI3Kγ, the IC50 is no less than 10 µM.
In the case of `CCNC(=O)Nc1ccc(-c2nccc(N3CC4CCC(C3)O4)n2)cc1` [Example 49, 1-(4-(4-(8-oxa-3-azabicyclo[3.2.1]octan-3-yl)pyrimidin-2-yl)phenyl)-3-ethylurea], the IC50 in experiment [1] (setting [3]) was 1 to 10 µM; in experiment [1] (setting [4]), 1 to 10 µM; in experiment [2], 0.1 to 1 µM; at PI3Kβ it was no less than 10 µM; on PI3K delta (PI3Kd) (setting [5]) it was no less than 10 µM; at PI3K delta (PI3Kd) (setting [6]) it was no less than 10 µM. Further, the IC50 is no less than 10 µM at PI3Kα, 0.1 to 1 µM on mTOR (setting [7]), 0.1 to 1 µM on mTOR (setting [8]) and no less than 10 µM on PI3Kγ.
Turning to `O=C(NCC(F)F)Nc1ccc(-c2nccc(N3CC4CCC(C3)O4)n2)cc1` [Example 51, 1-(4-(4-(8-oxa-3-azabicyclo[3.2.1]octan-3-yl)pyrimidin-2-yl)phenyl)-3-(2,2-difluoroethyl)urea], the IC50 in experiment [1] (setting [3]) was 1 to 10 µM; in experiment [1] (setting [4]), 1 to 10 µM; in experiment [2], 0.1 to 1 µM; at PI3Kβ it was no less than 10 µM; on PI3K delta (PI3Kd) (setting [5]), no less than 10 µM; at PI3K delta (PI3Kd) (setting [6]) it was no less than 10 µM. The IC50 on PI3Kα is no less than 10 µM; at mTOR (setting [7]), 0.1 to 1 µM; on mTOR (setting [8]), 0.1 to 1 µM; at PI3Kγ, no less than 10 µM.
On to `C[C@H]1COCCN1c1nc(-c2ccc(NC(=O)NCCN)cc2)cc(-c2cc(F)ccc2S(C)(=O)=O)n1` [Example 84, (S)-1-(2-aminoethyl)-3-(4-(6-(5-fluoro-2-(methylsulfonyl)phenyl)-2-(3-methylmorpholino)pyrimidin-4-yl)phenyl)urea], for which the IC50 in experiment [1] (setting [4]) is no less than 10 µM; in experiment [2] it was 1 to 10 µM; at PI3Kβ it was no less than 10 µM; on PI3K delta (PI3Kd) (setting [6]), no less than 10 µM; on PI3Kα, no less than 10 µM; at mTOR (setting [8]) it was 0.1 to 1 µM. The IC50 on PI3Kγ is no less than 10 µM.
In the case of `C[C@H]1COCCN1c1ccnc(-c2ccc(NC(=O)NCCO)cc2)n1` [Example 53, (S)-1-(2-hydroxyethyl)-3-(4-(4-(3-methylmorpholino)pyrimidin-2-yl)phenyl)urea], the IC50 in experiment [1] (setting [3]) was no less than 10 µM; in experiment [1] (setting [4]), no less than 10 µM; in experiment [2], 0.1 to 1 µM; on PI3Kβ, no less than 10 µM; on PI3K delta (PI3Kd) (setting [5]) it was no less than 10 µM; at PI3K delta (PI3Kd) (setting [6]) it was no less than 10 µM. Further, the IC50 is 1 to 10 µM on PI3Kα, 0.1 to 1 µM on mTOR (setting [7]), 0.1 to 1 µM on mTOR (setting [8]) and no less than 10 µM at PI3Kγ.
